Laboratory results taken from patent publication US10882835B2 (Imago Biosciences, Inc., priority 2013, dated 2021).

Assays:
KDM1A (LSD1) = KDM1A (LSD1) (Homo sapiens (Human), UniProt O60341); test: 10-dose IC50 fluorescence coupling enzyme assay, LSD1 demethylase activity on histone H3(1-21)K4me2 peptide (HRP/Amplex Red); format: biochemical; details: 10 μM histone H3(1-21)K4me2 peptide substrate
[1] = Metabolic stability in murine liver microsomes; format: in vitro ADME; details: mouse liver microsomes, 2 μM compound, NADPH
Description: The metabolic stability of compounds disclosed herein in pooled human liver microsomes (HLM) and pooled male mouse liver microsomes (MMLM) was determined according to the following protocol, in which the concentrations of compounds in reaction systems were evaluated by LC/MS/MS for estimating the stability in liver microsomes.
Pooled human liver microsomes (HMMCPL; PL050B) and pooled male mouse liver microsomes (MSMCPL; MS033) were purchased from CellzDirect (Invitrogen). Microsomes were stored at −80 C prior to use.
A master solution was prepared containing microsome (stock concentration 5 mg/mL, volume 50 μL, final concentration 0.5 mg/mL), MgCl2 solution (stock concentration 50 mM, volume 50 μL, final concentration 5 mM), phosphate buffer (stock concentration 200 mM, volume 250 μL, final concentration 100 mM), and water (volume […]. Five μL of 200 μM test compounds or control solution (control compound: verapamil) was then added. The final concentration of test compounds or verapamil in the reaction system was 2 μM. The mixture was pre-warmed at 37 C for 5 min.
The reaction was started with the addition of 50 μL of 10 mM NADPH solution at the final concentration of 1 mM and carried out at 37 C. 50 μL of ultra-pure H2O was used instead of NADPH solution in the negative control.
Aliquots of 50 μL were taken from the reaction solution at 0 and 30 min. The reaction was stopped by the addition of 3 volumes of cold methanol with IS (200 nM imipramine, 200 nM labetalol and 2 μM ketoprofen) at the designated time points. Samples were centrifuged at 16,000 g for 10 minutes to precipitate protein. Aliquot of 100 μL of the supernatant was diluted by 100 μL ultra-pure H2O, and the mixture was used for LC/MS/MS analysis. All experiments were performed in duplicate.
Samples were analyzed using liquid chromatography-mass spectrometry. The LC system comprised a Shimadzu liquid chromatograph separation system equipped with degasser DGU-20A3, solvent delivery unit LC-20AD, system controller CBM-20A, column oven CTO-10ASVP and CTC Analytics HTC PAL System. Chromatographic conditions included a Phenomenex column, 5.0μ C18 (2.0×50 mm); a mobile phase of 0.1% formic acid in acetonitrile and 0.1% formic acid in water; an elution rate of 500 μL/min; column temperature 25 C; injection volume 10 μL. Mass spectrometric analysis was performed using an API 4000 instrument from AB Inc. (Canada) with an ESI interface. The data acquisition and control system were created using Analyst 1.5.1 software from ABI Inc. A turbo spray ion source and electrospray ionization were employed in a multiple reaction monitoring (MRM) scan. Additional parameters included: collision gas, 6 L/min; curtain gas, 30 L/min; nebulize gas, 50 L/min; auxiliary gas, 50 L/min; temperature, 500 C; ionspray voltage, +5500 v (positive MRM). Quadripoles Q1 and Q3 were set to 456.2 and 200.2, respectively; declustering potential (DP), entrance potential (EP), and collision cell entrance potential (CE) were set to 120, 10, and 55 v, respectively; collision cell exit potential (CXP) was 12 v.
All calculations were carried out using Microsoft Excel. Peak areas were determined from extracted ion chromatograms. The control compounds were included in the assay. Any value of the compounds that was not within the specified limits was rejected and the experiment was repeated. The reaction system without the cofactors was used to exclude the misleading factor that resulted from instability of chemical itself.

| Compound | IC50 (KDM1A (LSD1)) | % at 30 min, MLM [1] | % at 30 min, MLM ([1]; numeric values of Table 2) |
| --- | --- | --- | --- |
| C[C@@]1(NCCS(=O)(=O)C[C@H](NC(=O)c2ccc(F)cc2)C(=O)N2CCOCC2)C[C@H]1c1ccc(F)cc1 [Example 17, 4-fluoro-N—((R)-3-((2-(((1R,2S)-2-(4-fluorophenyl)-1-methylcyclopropyl)amino)ethyl)sulfonyl)-1-morpholino-1-oxopropan-2-yl)benzamide] | < 1000 nM | − (− is <20%) | 2.7% |
| COc1ccc([C@@H]2C[C@H]2NCCS(=O)(=O)C[C@H](NC(=O)c2ccc(F)cc2)C(=O)N2CCOCC2)cc1 [Example 18, 4-fluoro-N—((R)-3-((2-(((1R,2S)-2-(4-methoxyphenyl)cyclopropyl)amino)ethyl)sulfonyl)-1-morpholino-1-oxopropan-2-yl)benzamide] | < 1000 nM | − (− is <20%) |  |
| O=C(N[C@@H](CS(=O)(=O)CCN[C@@H]1C[C@H]1c1ccc(F)cc1)C(=O)N1CCOCC1)c1ccc(F)cc1 [Example 19, 4-fluoro-N—((R)-3-((2-(((1R,2S)-2-(4-fluorophenyl)cyclopropyl)amino)ethyl)sulfonyl)-1-morpholino-1-oxopropan-2-yl)benzamide] | < 1000 nM | − (− is <20%) | 2.3% |
| CN(C(=O)c1ccccc1)[C@@H](CCCCN[C@]1(C)C[C@H]1c1ccc(F)cc1)C(=O)N1CCN(S(C)(=O)=O)CC1 [Example 27, N-[(2S)-6-[[(1R,2S)-2-(4-fluorophenyl)-1-methylcyclopropyl]amino]-1-(4-methanesulfonylpiperazin-1-yl)-1-oxohexan-2-yl]-N-methylbenzamide] | < 1000 nM | + (+ is ≥20%) |  |
